Reference: patent US20030171575A1, “Process for improving sucralose purity and yield” (priority 2002, published 2003)

Columns and labels:
[1] = background statement; cited from earlier work
[2] = Blinded three-sample taste panel, model soft drink with 100 ppm sucralose (Example 3); assay type: in vivo, panelists; conditions: 100 ppm sucralose in model soft drink (0.14% citric acid, 0.04% trisodium phosphate, pH 3.2), against samples without sucralose
Experimental: Purified sucralose is prepared by the process of solvent-solvent extraction and sequential recrystallizations as shown in Examples 1 and 2 of the present invention. Next the taste of the resultant composition is tested in a beverage.
(§1) Sucralose solutions are prepared by adding crystalline sucralose to a model soft drink composition that contains 0.14% citric acid and 0.04% trisodium phosphate. The pH of this composition is 3.2. Crystalline sucralose compositions are added to the soft drink composition to yield final levels of 100 parts per million (ppm).
(§2) Panelists are selected from the general population, and no specific demographic parameters are utilized in recruiting the panelists. The product samples are prepared and served chilled. Portions are dispensed into individual servings for the panelists. Samples are presented to panelists in a blinded manner (samples are identified only by a random digit label). Each panelist receives three samples for tasting (one sample comprising 100 ppm sucralose and two samples not comprising sucralose), and panelists are given a randomized sequence in which to taste the samples. […]
Statistical significance of the correctness of the scores (i.e. panelist ability to detect the sample that is different from the other two) is determined by use of a statistical table that correlates the number of correct responses with a p value.

[3] = Blinded paired palatability panel, consumer product such as ice cream with 150 ppm sucralose (Example 5); assay type: in vivo, panelists; conditions: 150 ppm sucralose in consumer product such as ice cream, served chilled
Experimental: Purified sucralose is prepared by the process of solvent-solvent extraction and sequential recrystallizations as shown in Examples 1 and 2 of the present invention. Next, sucralose is used to enhance the palatability of a consumer product.
The sucralose is added to one group (1G) of two groups (1G and 2G) of a consumer product such as ice cream to yield final levels of 150 ppm sucralose.
Panelists are selected from the general population, and no specific demographic parameters are utilized in recruiting the panelists. The two groups of samples are prepared and served chilled. Portions are dispensed into individual servings for the panelists. Samples are presented to panelists in a blinded manner (samples are identified only by a random digit label). Each panelist receives two samples for tasting, and panelists are given a randomized sequence in which to taste the samples. Thus, the order of tasting is completely random. In each set of two samples, one sample is from G1 and the other sample is from G2. Panelists are asked to select the sample that tastes the most palatable, record that result and record how confident they are of the result. […]
Statistical significance of the correctness of the scores (i.e., panelist ability to detect the most palatable sample) is determined by use of a statistical table that correlates the number of correct responses with a p value.

[4] = Blinded three-sample taste panel, model soft drink with 10 ppm sucralose (Example 7); assay type: in vivo, panelists; conditions: 10 ppm sucralose in model soft drink (0.14% citric acid, 0.04% trisodium phosphate, pH 3.2)
Experimental: Purified sucralose is prepared by the process of solvent—solvent extraction and sequential recrystallizations as shown in Examples 1 and 2 of the present invention. Next, the effect on palatability of a beverage by purified sucralose is tested.
as §1, with “10 ppm sucralose.” for “100 parts per million (ppm).”
A model soft drink composition without sucralose is also prepared.
as §2, with “tasting,” for “tasting (one sample comprising 100 ppm sucralose and two samples not comprising sucralose),”
Statistical significance of the correctness of the scores (i.e., panelist ability to detect the sample that is different from the other two) is determined by use of a statistical table that correlates the number of correct responses with a p value.

SMILES: OC[C@H]1O[C@H](O[C@]2(CCl)O[C@H](CCl)[C@@H](O)[C@@H]2O)[C@H](O)[C@@H](O)[C@H]1Cl [Sucralose, 4,1′,6′-trichloro-4,1′,6′-trideoxygalactosucrose]
- sweetness intensity compared with sucrose [1]: several hundred times
- palatability of the odd sample (comments of panelists choosing the correct sample) [2]: increased palatability
- palatability against samples not comprising sucralose [3]: more palatable
- palatability against samples not comprising sucralose [4]: more palatable
